Eleven molecules from patent US7709511B2, “Benzothiazolone derivatives” (AstraZeneca AB, priority 2005, dated 2010) can be followed below.

Assay [1] deals with T1, Adrenergic β2 (Homo sapiens, UniProt P07550).
T1 construct: endogenous in cells; host or cells: H292 cells
Description: Adrenergic β2 mediated cAMP production in H292 cells (AlphaScreen cAMP detection). The settings on record: for EC50: cAMP, test compounds incubated 10 minutes at room temperature, 300 μM rolipram; for Intrinsic Activity: fraction relative to the maximum activity determined for formoterol, 10 minutes incubation. Type of assay: cell-based. On the procedure: Adrenergic β2 Mediated cAMP Production
H292 cells were grown in RPMI (Roswell Park Memorial Institute) medium containing, 10% (v/v) FBS (foetal bovine serum) and 2 mM L-glutamine. Cells were grown in 225 cm2 flasks containing 25 mL media in a humidified incubator at 37° C., 5% CO2. Cells were harvested from the flask and passaged at a 1 in 10 dilution once per week.
The media from flasks containing H292 cells was removed, rinsed with 10 mL PBS (phosphate buffered saline) and replaced with 10 mL Accutase™ cell detachment solution. Flasks were incubated for 15 minutes in a humidified incubator at 37° C., 5% CO2. The cell suspension was counted and the cells re-suspended in RPMI media (containing 10% (v/v) FBS and 2 mM L-glutamine) at 0.05×10^6 cells per mL. 5000 cells in 100 μL were added to each well of a tissue-culture-treated 96-well plate and the cells incubated overnight in a humidified incubator at 37° C., 5% CO2. The culture media was removed, washed twice with 100 μL assay buffer and replaced with 50 μL assay buffer. Cells were rested at room temperature for 20 minutes after which time 25 μL of rolipram (1.2 mM made up in assay buffer containing 2.4% (v/v) dimethylsulphoxide) was added. Cells were incubated with rolipram for 10 minutes after which time test compounds (made up as ×4 concentrated stocks in assay buffer containing 4% (v/v) dimethylsulphoxide) were added and the cells were incubated for 10 minutes at room temperature. Final rolipram concentration in the assay was 300 μM and final vehicle concentration was 1.6% (v/v) dimethylsulphoxide. The reaction was stopped by removing supernatants, washing once with 100 μL assay buffer and replacing with 50 μL lysis buffer. The cell monolayer was frozen at −80° C. for 30 minutes (or overnight).
(§1) AlphaScreen™ cAMP Detection
(§2) The concentration of cAMP (cyclic adenosine monophosphate) in the cell lysate was determined using the AlphaScreen™ methodology. The frozen cell plate was thawed for 20 minutes on a plate shaker then 10 μL of the cell lysate was transferred to a 96-well white plate. 40 μL of mixed AlphaScreen™ detection beads (containing equal volumes of donor beads (pre-incubated with biotinylated cAMP in the dark for 30 minutes) and acceptor beads), was added to each well and the plate incubated at room temperature for 10 hours in the dark. The AlphaScreen™ signal was measured using an EnVision spectrophotometer (Perkin-Elmer Inc.) with the recommended manufacturer's settings. cAMP concentrations were determined by reference to a calibration curve determined in the same experiment using standard cAMP concentrations (made up in lysis buffer in a 96-well tissue-culture-treated plate and frozen/thawed alongside the test samples) and detected using the same protocol. Concentration response curves for agonists were constructed to determine both the pEC50 and Intrinsic Activity. Intrinsic Activity was expressed as a fraction relative to the maximum activity determined for formoterol in each experiment.

Assay [2] has as its target T1, Adrenergic β2. Put plainly: Alternative adrenergic β2 mediated cAMP production in H292 cells (AlphaScreen cAMP detection). The note with it: for EC50: cAMP, test compounds incubated 60 minutes at room temperature, 300 μM rolipram, read-out: β2 pEC50 (converted); for β2 Int Act: fraction relative to the maximum activity determined for formoterol, 60 minutes incubation. Type of assay: cell-based. As to the method: Alternative Adrenergic β2 Mediated cAMP Production Cell Preparation
H292 cells were grown in 225 cm2 flasks incubator at 37° C., 5% CO2 in RPMI medium containing, 10% (v/v) FBS (foetal bovine serum) and 2 mM L-glutamine.
Adherent H292 cells were removed from tissue culture flasks by treatment with Accutase™ cell detachment solution for 15 minutes. Flasks were incubated for 15 minutes in a humidified incubator at 37° C., 5% CO2. Detached cells were re-suspended in RPMI media (containing 10% (v/v) FBS and 2 mM L-glutamine) at 0.05×10^6 cells per mL. 5000 cells in 100 μL were added to each well of a tissue-culture-treated 96-well plate and the cells incubated overnight in a humidified incubator at 37° C., 5% CO2. The culture media was removed and cells were washed twice with 100 μL assay buffer and replaced with 50 μL assay buffer (HBSS solution containing 10 mM HEPES pH7.4 and 5 mM glucose). Cells were rested at room temperature for 20 minutes after which time 25 μL of rolipram (1.2 mM made up in assay buffer containing 2.4% (v/v) dimethylsulphoxide) was added. Cells were incubated with rolipram for 10 minutes after which time test compounds were added and the cells were incubated for 60 minutes at room temperature. The final rolipram concentration in the assay was 300 μM and final vehicle concentration was 1.6% (v/v) dimethylsulphoxide. The reaction was stopped by removing supernatants, washing once with 100 μL assay buffer and replacing with 50 μL lysis buffer. The cell monolayer was frozen at −80° C. for 30 minutes (or overnight).
as §1
as §2, with “using” for “using the”, “pre-incubated” for “(containing equal volumes of donor beads (pre-incubated”, “cAMP,” for “cAMP in the dark for 30 minutes) and acceptor beads),”, “concentrations.” for “concentrations (made up in lysis buffer in a 96-well tissue-culture-treated plate and frozen/thawed alongside the test samples) and detected using the same protocol.”, “constructed and data was fitted to a four parameter logistic equation” for “constructed”

Molecules are shown by their SMILES. Counter-ions that a name gives are not always drawn.

T1 sequence (P07550 whole entry): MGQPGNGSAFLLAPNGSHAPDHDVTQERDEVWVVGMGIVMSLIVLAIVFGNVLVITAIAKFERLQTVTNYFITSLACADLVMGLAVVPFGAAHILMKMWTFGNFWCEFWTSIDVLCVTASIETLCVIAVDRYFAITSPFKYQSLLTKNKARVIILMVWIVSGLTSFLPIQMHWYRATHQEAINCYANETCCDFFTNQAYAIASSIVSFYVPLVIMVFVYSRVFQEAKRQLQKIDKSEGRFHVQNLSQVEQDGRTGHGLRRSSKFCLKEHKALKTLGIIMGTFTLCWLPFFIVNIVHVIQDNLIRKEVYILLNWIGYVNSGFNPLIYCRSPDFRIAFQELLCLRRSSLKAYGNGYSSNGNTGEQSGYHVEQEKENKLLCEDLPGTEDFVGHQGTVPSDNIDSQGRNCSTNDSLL

With `CC(C)(C)OC(=O)N1CCC(CN(CCNCCc2ccc(O)c3[nH]c(=O)sc23)C(=O)CCOCCc2ccccc2)CC1` [Example 1, tert-Butyl 4-({(2-{[2-(4-hydroxy-2-oxo-2,3-dihydro-1,3-benzothiazol-7-yl)ethyl]amino}ethyl)[3-(2-phenylethoxy)propanoyl]amino}methyl)piperidine-1-carboxylate], at Adrenergic β2 [1], the EC50 was 0.0631 µM and the “Intrinsic Activity” value was determined as 0.7.
In the case of `O=C(CCOCCc1ccccc1)N(CCNCCc1ccc(O)c2[nH]c(=O)sc12)Cc1cccnc1` [Example 5, N-[2-[2-(4-Hydroxy-2-oxo-3H-benzothiazol-7-yl)ethylamino]ethyl]-3-phenethyloxy-N-(3-pyridylmethyl)propanamide], on Adrenergic β2 [1], the EC50 is 0.0126 µM and the “Intrinsic Activity” value was 0.8.
On to `O=C(CCOCCc1ccccc1)N(CCCNCCc1ccc(O)c2[nH]c(=O)sc12)CCc1ccccc1` [Example 8, N-(3-{[2-(4-Hydroxy-2-oxo-2,3-dihydro-1,3-benzothiazol-7-yl)ethyl]amino}propyl)-3-(2-phenylethoxy)-N-(2-phenylethyl)propanamide], for which, at Adrenergic β2 [1], the EC50 was 0.00126 µM and the “Intrinsic Activity” value came out at 0.7.
Regarding `O=C(CCOCCc1ccc(Br)cc1)N(CCNCCc1ccc(O)c2[nH]c(=O)sc12)CCc1ccccc1` [Example 10, 3-[2-(4-Bromophenyl)ethoxy]-N-[2-[2-(4-hydroxy-2-oxo-3H-benzothiazol-7-yl)ethylamino]ethyl]-N-phenethyl-propanamide], on Adrenergic β2 [2], the EC50 was 0.00794 µM and the “β2 Int Act” value amounted to 0.7. Moreover, on Adrenergic β2 [1], the EC50 is 0.00501 µM and the “Intrinsic Activity” value is given as 0.6.
Regarding `CCN(CC)CCN(CCNCCc1ccc(O)c2[nH]c(=O)sc12)C(=O)CCOCCc1ccccc1` [Example 12, N-[2-(Diethylamino)ethyl]-N-(2-{[2-(4-hydroxy-2-oxo-2,3-dihydro-1,3-benzothiazol-7-yl)ethyl]amino}ethyl)-3-(2-phenylethoxy)propanamide], on Adrenergic β2 [2], the EC50 was 0.00794 µM and the “β2 Int Act” value was 0.8. Moreover, on Adrenergic β2 [1], the EC50 was 0.0158 µM and the “Intrinsic Activity” value stood at 0.8.
`O=c1[nH]c2c(O)ccc(CCNCCN(CCCOCCc3ccccc3)CCc3ccccc3)c2s1` [Example 13, 4-Hydroxy-7-[2-({2-[[3-(2-phenylethoxy)propyl](2-phenylethyl)amino]ethyl}amino)-ethyl]-1,3-benzothiazol-2(3H)-one]: at Adrenergic β2 [2], the EC50 was 0.0631 µM and the “β2 Int Act” value is given as 0.5.
Taken in the same sequence, the figures for `CN(C)CCN(CCNCCc1ccc(O)c2[nH]c(=O)sc12)C(=O)CCOCCc1ccccc1` [Example 14, N-[2-(Dimethylamino)ethyl]-N-(2-{[2-(4-hydroxy-2-oxo-2,3-dihydro-1,3-benzothiazol-7-yl)ethyl]amino}ethyl)-3-(2-phenylethoxy)propanamide] were 0.00794 µM and 1.
For `CCN(CC)CCN(CCNCCc1ccc(O)c2[nH]c(=O)sc12)C(=O)CCOCCc1ccc(O)cc1` [Example 19, N-[2-(Diethylamino)ethyl]-N-(2-{[2-(4-hydroxy-2-oxo-2,3-dihydro-1,3-benzothiazol-7-yl)ethyl]amino}ethyl)-3-[2-(4-hydroxyphenyl)ethoxy]propanamide ditrifluoroacetate] the same measures were 0.0126 µM and 0.8.
Taken in the same sequence, the figures for `CCN(CC)CCN(CCNCCc1ccc(O)c2[nH]c(=O)sc12)C(=O)CCOCCc1cc(OC)ccc1Br` [Example 21, 3-[2-(2-Bromo-5-methoxyphenyl)ethoxy]-N-[2-(diethylamino)ethyl]-N-(2-{[2-(4-hydroxy-2-oxo-2,3-dihydro-1,3-benzothiazol-7-yl)ethyl]amino}ethyl)propanamide dihydrobromide] were 0.0794 µM and 0.6.
Consider `CCN(CC)CCN(CCNCCc1ccc(O)c2[nH]c(=O)sc12)C(=O)CCOCCc1c(Cl)cccc1Cl` [Example 24, 3-[2-(2,6-Dichlorophenyl)ethoxy]-N-(2-diethylaminoethyl)-N-{2-[2-(4-hydroxy-2-oxo-2,3-dihydro-1,3-benzothiazol-7-yl)ethylamino]ethyl}propanamide dihydrobromide], for which, on Adrenergic β2 [2], the EC50 is 0.1 µM and the “β2 Int Act” value came out at 0.9.
Take `CCN(CC)CCN(CCNCCc1ccc(O)c2[nH]c(=O)sc12)C(=O)CCOCCc1cccc(C(F)(F)F)c1` [Example 25, N-(2-Diethylaminoethyl)-N-{2-[2-(4-hydroxy-2-oxo-2,3-dihydro-1,3-benzothiazol-7-yl)ethylamino]ethyl}-3-[2-(3-trifluoromethylphenyl)ethoxy]propanamide dihydrobromide]: on Adrenergic β2 [2], the EC50 is 0.0631 µM and the “β2 Int Act” value worked out at 0.8.
